Test results reported in patent US20260234136A1, “ISOXAZOLIDINES AS RIPK1 INHIBITORS AND USE THEREOF” (GENZYME CORPORATION, priority 2023, published 2026).
In brackets after ≈: the same amount, converted by molar mass.

Assays:
U937 cells = assay: Cellular assay in U937 cells to measure the activity of RIPK1-inhibitors on cell death (necroptosis); format: cell-based; settings: Homo sapiens, U-937, 50 μM zVAD.fmk and 100 ng/ml recombinant human TNFα, overnight (18 to 24 hrs), MTS readout
physchem = settings: 50 mM phosphate buffer, 25 °C, pH 7.4, aqueous buffer, thermodynamic from solid

| SMILES | solubility at 16 h (physchem) | IC50 (U937 cells) |
| --- | --- | --- |
| O=C1CCCN1c1ccnc(N2CCC(C(=O)N3OCC[C@H]3c3cncc(F)c3)CC2)n1 [Example 46, 1-[2-[4-[(3S)-3-(5-fluoropyridin-3-yl)-1,2-oxazolidine-2-carbonyl]piperidin-1-yl]pyrimidin-4-yl]pyrrolidin-2-one] | > 1140 µM | 18 nM |
| O=C1CCCCN1c1ccnc(N2CCC(C(=O)N3OCC[C@H]3c3cnccn3)CC2)n1 [Example 47, 1-[2-[4-[(3S)-3-pyrazin-2-yl-1,2-oxazolidine-2-carbonyl]piperidin-1-yl]pyrimidin-4-yl]piperidin-2-one] | > 1140 µM | 71 nM |
| Cc1ncc([C@@H]2CCON2C(=O)[C@@H]2CCN(c3ncnc(-c4ccnn4C)n3)CC23CC3)cc1F [Example 48, [(3S)-3-(5-fluoro-6-methylpyridin-3-yl)-1,2-oxazolidin-2-yl]-[(8R)-5-[4-(2-methylpyrazol-3-yl)-1,3,5-triazin-2-yl]-5-azaspiro[2.5]octan-8-yl]methanone] | 231 µM (≈ 111 µg/mL) | 3 nM |
| Cc1cncc([C@@H]2CCON2C(=O)C2CCN(c3nccc(N4CCCC4=O)n3)CC2)c1 [Example 50, 1-[2-[4-[(3S)-3-(5-methylpyridin-3-yl)-1,2-oxazolidine-2-carbonyl]piperidin-1-yl]pyrimidin-4-yl]pyrrolidin-2-one] | > 1150 µM | 33 nM |
| Cc1nc([C@@H]2CCON2C(=O)C2CCN(c3nccc(N4CCC5(CC5)C4=O)n3)CC2)cs1 [Example 52, 5-[2-[4-[(3S)-3-(2-methyl-1,3-thiazol-4-yl)-1,2-oxazolidine-2-carbonyl]piperidin-1-yl]pyrimidin-4-yl]-5-azaspiro[2.4]heptan-4-one] | 321 µM (≈ 151 µg/mL) | 24 nM |
| O=C(C1CCN(c2nccc(N3CCCC4(CC4)C3=O)n2)CC1)N1OCC[C@H]1c1cnccn1 [Example 57, 5-[2-[4-[(3S)-3-pyrazin-2-yl-1,2-oxazolidine-2-carbonyl]piperidin-1-yl]pyrimidin-4-yl]-5-azaspiro[2.5]octan-4-one] | > 1080 µM | 59 nM |
| Cc1ccc([C@@H]2CCON2C(=O)[C@@H]2CCN(c3ncnc(-c4ccnn4C)n3)CC23CC3)cn1 [Example 69, [(8R)-5-[4-(2-methylpyrazol-3-yl)-1,3,5-triazin-2-yl]-5-azaspiro[2.5]octan-8-yl]-[(3S)-3-(6-methylpyridin-3-yl)-1,2-oxazolidin-2-yl]methanone] | 601 µM (≈ 277 µg/mL) | 9 nM |

Now from value to molecule, other results behind:

| solubility at 16 h (physchem) | SMILES | IC50 (U937 cells) |
| --- | --- | --- |
| > 1100 µM | Cc1ncc([C@@H]2CCON2C(=O)C2CCN(c3nccc(N4CCCC4=O)n3)CC2)cc1F [Example 56, 1-[2-[4-[(3S)-3-(5-fluoro-6-methylpyridin-3-yl)-1,2-oxazolidine-2-carbonyl]piperidin-1-yl]pyrimidin-4-yl]pyrrolidin-2-one] | 21 nM |
| 217 µM (≈ 104 µg/mL) | Cc1nc([C@@H]2CCON2C(=O)C2CCN(c3nccc(N4CCC(F)(F)C4=O)n3)CC2)cs1 [Example 59, 3,3-difluoro-1-[2-[4-[(3S)-3-(2-methyl-1,3-thiazol-4-yl)-1,2-oxazolidine-2-carbonyl]piperidin-1-yl]pyrimidin-4-yl]pyrrolidin-2-one] | 80 nM |
| 209 µM (≈ 95.5 µg/mL) | Cc1ncc([C@@H]2CCON2C(=O)C2CCN(c3nccc(N4CCOC4=O)n3)CC2)cc1F [Example 65, 3-[2-[4-[(3S)-3-(5-fluoro-6-methylpyridin-3-yl)-1,2-oxazolidine-2-carbonyl]piperidin-1-yl]pyrimidin-4-yl]-1,3-oxazolidin-2-one] | 6 nM |
| > 1140 µM | O=C1CCCN1c1nccc(N2CCC(C(=O)N3OCC[C@H]3c3cncc(F)c3)CC2)n1 [Example 71, 1-[4-[4-[(3S)-3-(5-fluoropyridin-3-yl)-1,2-oxazolidine-2-carbonyl]piperidin-1-yl]pyrimidin-2-yl]pyrrolidin-2-one] | 2340 nM |
